A value given as a limit tells only on which side of the number the result lay.

Test [1] addresses T1, wtEGFR (Homo sapiens, UniProt P00533).
T1 construct: purchased Invitrogen PR7295B
The experiment in a line: HotSpot radiometric kinase activity assay, wtEGFR. The note with it: biochemical activity, 4 nM wtEGFR, 10 μM 33P-ATP, 2 hours, read-out: EGFR WT IC50. As for the experimental part: (§1) The purpose of the wtERBB2, ERBB2-A775_G776insYVMA (ERBB2YVMA), wtEGFR biochemical assay was to evaluate the inhibition (% inhibition and IC50 values) of the small molecule inhibitors by using the “HotSpot” radiometric kinase activity assay. HotSpot assays monitor the production of kinase substrate by the radioactive gamma phosphate of adenosine triphosphate (33P-ATP) during biochemical reactions. HotSpot assays was performed in steps upon completion of the kinase reaction: deposition of a reaction mixture aliquot onto P81 ion exchange paper, extensive washing of the aforementioned P81 paper using phosphoric acid to remove unbound radiolabeled 33P-ATP from the P81 paper, and finally visualization and quantification of the dried P81 paper utilizing a phosphoimager. […] Typical reaction solutions (10 μL, final reaction volume) contained the following buffer conditions: 20 mM Hepes (pH 7.5), 10 mM MgCl2, 1 mM EGTA, 0.01% Brij35, 0.02 mg/mL BSA, 0.1 mM Na3VO4, 2 mM DTT, 1% DMSO. The assay was primed by preparing a fresh 0.2 mg/mL solution of pEY (Sigma Cat: P7244) substrate in the reaction buffer and supplementing that solution with […] of MnCl2 as substrate cofactor (Sigma Cat: M9522). The kinase of interest was then added to the solution at the appropriate concentration (30 nM wtERBB2 from, or 20 nM ERBB2YVMA, or 4 nM wtEGFR) and gently mixed prior to delivery of compound in 100% DMSO by acoustic dispensing (Beckman Echo550). Compound, Kinase, and substrate were allowed to incubate for 20 min at room temperature prior to the initiation of the reaction by addition of 33P-ATP (PerkinElmer Cat: NEG602, final conc 10 μM). […] IC50 determinations were made from a plot of kinase activity as a function of inhibitor concentration fit to the 4-parameter IC50 equation with the enzyme concentration held constant using GraphPad Prism (San Diego).

Test [2] concerns the target T2, ERBB2-A775_G776insYVMA (ERBB2YVMA) (Homo sapiens, UniProt P04626, INS775YVMA).
T2 construct: purchased SignalChem E27-13BG
The experiment in a line: HotSpot radiometric kinase activity assay, ERBB2YVMA. The note with it: biochemical activity, 20 nM ERBB2YVMA, 10 μM 33P-ATP, 2 hours, read-out: HER2 - YVMA IC50. As for the experimental part:
as §1

In test [3] the target is BaF3_HER2YVMA cells (Homo sapiens, UniProt P04626, DUP772-775, cells depend on it). As to the kind of experiment: Cell growth inhibition assay (CellTiterGlo), BaF3_HER2YVMA. Format: cell-based. The note with it: 3-day treatment, CellTiterGlo, read-out: Cell growth inhibition activity, HER2 - YVMA. (In general: ATP-based viability assays read luminescence as a measure of living cells.)
BaF3_HER2YVMA cells, sequence (P04626 with tags, fused parts or gaps DUP772-775): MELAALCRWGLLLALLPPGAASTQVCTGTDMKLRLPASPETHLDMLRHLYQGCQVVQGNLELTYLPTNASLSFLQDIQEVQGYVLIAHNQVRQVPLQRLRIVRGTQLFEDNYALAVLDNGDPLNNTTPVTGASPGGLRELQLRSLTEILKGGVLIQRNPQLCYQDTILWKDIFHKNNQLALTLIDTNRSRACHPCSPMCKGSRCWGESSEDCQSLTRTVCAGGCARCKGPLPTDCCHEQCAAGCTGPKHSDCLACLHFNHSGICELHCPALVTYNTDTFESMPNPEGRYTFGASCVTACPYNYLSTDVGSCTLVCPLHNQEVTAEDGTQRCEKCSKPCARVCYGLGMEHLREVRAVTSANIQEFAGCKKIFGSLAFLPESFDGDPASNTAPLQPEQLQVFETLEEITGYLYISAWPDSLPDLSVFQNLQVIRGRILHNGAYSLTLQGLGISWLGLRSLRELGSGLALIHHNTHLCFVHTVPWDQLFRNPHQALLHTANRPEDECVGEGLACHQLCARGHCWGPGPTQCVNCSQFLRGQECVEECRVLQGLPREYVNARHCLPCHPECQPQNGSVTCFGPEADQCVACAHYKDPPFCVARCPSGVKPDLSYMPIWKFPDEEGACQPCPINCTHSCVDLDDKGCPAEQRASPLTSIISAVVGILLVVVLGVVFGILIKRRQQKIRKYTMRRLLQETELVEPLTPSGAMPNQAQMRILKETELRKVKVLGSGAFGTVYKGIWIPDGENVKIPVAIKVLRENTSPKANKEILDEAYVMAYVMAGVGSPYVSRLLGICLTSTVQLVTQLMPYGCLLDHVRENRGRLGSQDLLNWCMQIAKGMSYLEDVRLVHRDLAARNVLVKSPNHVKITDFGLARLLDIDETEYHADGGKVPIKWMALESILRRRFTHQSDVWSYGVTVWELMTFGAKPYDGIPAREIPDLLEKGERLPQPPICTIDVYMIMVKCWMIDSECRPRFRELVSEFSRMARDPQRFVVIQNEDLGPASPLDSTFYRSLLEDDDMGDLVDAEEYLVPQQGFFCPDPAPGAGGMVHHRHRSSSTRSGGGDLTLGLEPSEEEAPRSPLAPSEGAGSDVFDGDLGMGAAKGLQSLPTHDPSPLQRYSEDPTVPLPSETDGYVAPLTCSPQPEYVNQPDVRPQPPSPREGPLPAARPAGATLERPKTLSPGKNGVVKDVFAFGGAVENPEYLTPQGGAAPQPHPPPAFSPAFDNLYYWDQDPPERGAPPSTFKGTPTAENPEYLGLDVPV

Test [4] deals with BaF3_EGFRWT cells (Homo sapiens, UniProt P00533). The experiment in a line: Cell growth inhibition assay (CellTiterGlo), BaF3_EGFRWT. Format: cell-based. The note with it: 3-day treatment, CellTiterGlo, read-out: Cell growth inhibition activity, EGFR WT.
BaF3_EGFRWT cells, sequence (P00533 whole entry, change not shown): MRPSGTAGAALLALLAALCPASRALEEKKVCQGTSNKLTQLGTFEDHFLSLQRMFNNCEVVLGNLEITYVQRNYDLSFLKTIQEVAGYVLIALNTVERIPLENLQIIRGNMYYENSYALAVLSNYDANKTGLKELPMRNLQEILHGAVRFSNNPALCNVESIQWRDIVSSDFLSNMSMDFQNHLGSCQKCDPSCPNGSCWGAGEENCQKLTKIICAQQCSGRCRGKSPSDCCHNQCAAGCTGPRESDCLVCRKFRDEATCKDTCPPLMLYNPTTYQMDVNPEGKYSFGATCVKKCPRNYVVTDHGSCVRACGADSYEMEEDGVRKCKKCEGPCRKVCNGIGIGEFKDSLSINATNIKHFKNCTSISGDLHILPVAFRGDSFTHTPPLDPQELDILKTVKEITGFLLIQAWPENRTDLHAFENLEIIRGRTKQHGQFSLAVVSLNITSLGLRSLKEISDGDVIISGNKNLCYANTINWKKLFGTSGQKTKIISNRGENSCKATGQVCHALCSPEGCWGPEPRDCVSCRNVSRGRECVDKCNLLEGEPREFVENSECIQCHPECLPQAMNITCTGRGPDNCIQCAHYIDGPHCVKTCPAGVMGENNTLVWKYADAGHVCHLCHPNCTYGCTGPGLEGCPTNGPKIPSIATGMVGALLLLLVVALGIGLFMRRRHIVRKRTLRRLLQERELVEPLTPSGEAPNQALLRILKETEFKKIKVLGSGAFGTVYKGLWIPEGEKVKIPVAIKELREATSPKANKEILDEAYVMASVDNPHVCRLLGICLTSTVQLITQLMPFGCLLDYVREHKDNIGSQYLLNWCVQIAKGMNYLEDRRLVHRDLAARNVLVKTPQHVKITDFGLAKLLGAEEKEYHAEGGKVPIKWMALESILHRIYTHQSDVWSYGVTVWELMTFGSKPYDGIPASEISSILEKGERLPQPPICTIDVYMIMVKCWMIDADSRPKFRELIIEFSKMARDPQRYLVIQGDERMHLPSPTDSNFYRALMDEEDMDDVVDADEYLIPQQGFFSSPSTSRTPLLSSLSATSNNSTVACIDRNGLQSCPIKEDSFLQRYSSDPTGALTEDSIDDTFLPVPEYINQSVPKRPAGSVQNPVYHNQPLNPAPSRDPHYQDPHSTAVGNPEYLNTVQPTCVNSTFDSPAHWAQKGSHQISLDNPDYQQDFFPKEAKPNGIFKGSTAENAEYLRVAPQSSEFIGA
The target in test [5] is BaF3_HER2WT cells (Homo sapiens, UniProt P04626). As to the kind of experiment: Cell growth inhibition assay (CellTiterGlo), BaF3_HER2WT. Format: cell-based. The note with it: 3-day treatment, CellTiterGlo, read-out: Cell growth inhibition activity, HER2 WT.

T1 sequence (P00533 25-1210): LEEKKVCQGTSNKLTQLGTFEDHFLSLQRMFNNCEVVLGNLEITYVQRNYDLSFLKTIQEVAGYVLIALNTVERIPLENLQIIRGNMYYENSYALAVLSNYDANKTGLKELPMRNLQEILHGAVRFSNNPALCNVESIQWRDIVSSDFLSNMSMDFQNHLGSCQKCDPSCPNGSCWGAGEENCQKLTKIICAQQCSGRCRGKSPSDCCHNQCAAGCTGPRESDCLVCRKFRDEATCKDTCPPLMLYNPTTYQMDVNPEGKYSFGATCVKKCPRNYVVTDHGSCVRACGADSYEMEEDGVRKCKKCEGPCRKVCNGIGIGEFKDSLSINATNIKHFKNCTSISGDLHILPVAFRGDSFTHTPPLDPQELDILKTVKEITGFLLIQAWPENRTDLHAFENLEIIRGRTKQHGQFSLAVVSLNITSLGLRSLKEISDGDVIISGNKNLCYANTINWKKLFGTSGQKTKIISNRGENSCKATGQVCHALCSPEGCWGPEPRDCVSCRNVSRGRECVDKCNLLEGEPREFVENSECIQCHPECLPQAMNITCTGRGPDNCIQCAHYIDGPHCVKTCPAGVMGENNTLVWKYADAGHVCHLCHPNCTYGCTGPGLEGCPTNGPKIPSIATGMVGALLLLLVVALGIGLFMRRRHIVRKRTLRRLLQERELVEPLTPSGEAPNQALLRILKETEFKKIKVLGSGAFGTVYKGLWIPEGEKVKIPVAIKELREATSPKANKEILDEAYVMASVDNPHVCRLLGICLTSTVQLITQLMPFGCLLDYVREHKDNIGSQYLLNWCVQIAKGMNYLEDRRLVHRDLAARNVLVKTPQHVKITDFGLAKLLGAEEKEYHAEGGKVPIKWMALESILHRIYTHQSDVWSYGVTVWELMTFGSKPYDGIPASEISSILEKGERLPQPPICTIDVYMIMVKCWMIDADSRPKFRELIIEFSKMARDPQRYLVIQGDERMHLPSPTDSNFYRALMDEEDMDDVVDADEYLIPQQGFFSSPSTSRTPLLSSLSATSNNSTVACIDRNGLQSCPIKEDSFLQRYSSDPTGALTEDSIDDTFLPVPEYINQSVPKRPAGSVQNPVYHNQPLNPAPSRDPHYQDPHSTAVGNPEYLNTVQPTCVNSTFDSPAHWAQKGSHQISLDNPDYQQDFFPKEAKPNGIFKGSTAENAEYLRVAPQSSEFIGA
T2 sequence (P04626 with tags, fused parts or gaps INS775YVMA limits assumed): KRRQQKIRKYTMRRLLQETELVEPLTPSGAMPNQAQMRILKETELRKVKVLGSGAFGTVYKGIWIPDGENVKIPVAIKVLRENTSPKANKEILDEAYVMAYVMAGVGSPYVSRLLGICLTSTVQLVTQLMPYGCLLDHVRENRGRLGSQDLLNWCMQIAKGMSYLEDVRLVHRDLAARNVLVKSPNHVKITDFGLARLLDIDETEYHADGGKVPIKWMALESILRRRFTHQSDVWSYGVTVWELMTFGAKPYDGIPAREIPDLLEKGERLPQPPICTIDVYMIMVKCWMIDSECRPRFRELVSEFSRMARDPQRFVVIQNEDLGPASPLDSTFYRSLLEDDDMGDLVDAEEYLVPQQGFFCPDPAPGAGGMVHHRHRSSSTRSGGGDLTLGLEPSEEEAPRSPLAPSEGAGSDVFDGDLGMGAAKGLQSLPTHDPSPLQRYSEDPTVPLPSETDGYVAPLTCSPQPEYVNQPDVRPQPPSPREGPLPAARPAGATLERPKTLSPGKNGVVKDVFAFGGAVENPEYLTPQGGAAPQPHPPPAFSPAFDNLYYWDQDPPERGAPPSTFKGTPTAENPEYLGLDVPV

In general, IC50 refers to the concentration that gives 50% inhibition. On to `Cc1cc(Nc2ncnn3ccc(C4CCN(C(=O)/C=C/CN(C)C)C4)c23)ccc1Oc1ccn2ncnc2c1` (single isomer, unassigned) [Example 100], for which the IC50 in test [1] was in the range of 1500 to 5000 nM.
As for `Cc1cc(Nc2ncnn3ccc(C4CCCN(C(=O)/C=C/CN(C)C)C4)c23)ccc1Oc1ccn2ncnc2c1` (single isomer, unassigned) [Example 107], in test [1], the IC50 is 500 to 1500 nM.
Take `Cc1cc(Nc2ncnn3ccc(C4CCCN(C(=O)/C=C/CN(C)C)C4)c23)ccc1Oc1ccn2ncnc2c1` (single isomer, unassigned) [Example 108]: the IC50 in test [1] fell in the range of 1500 to 5000 nM.
With `Cc1cc(Nc2ncnn3ccc(C4CCCN(C(=O)/C=C/CN(C)C)CC4)c23)ccc1Oc1ccn2ncnc2c1` (single isomer, unassigned) [Example 110], the IC50 in test [1] is 200 to 500 nM.
For `Cc1cc(Nc2ncnn3ccc(C4CN(C(=O)/C=C/CN(C)C)C4)c23)ccc1Oc1ccn2ncnc2c1` [Example 1, (E)-1-(3-(4-((4-([1,2,4]triazolo[1,5-a]pyridin-7-yloxy)-3-methylphenyl)amino)pyrrolo[2,1-f][1,2,4]triazin-5-yl)azetidin-1-yl)-4-(dimethylamino)but-2-en-1-one], in test [2], the IC50 was below 200 nM. Also, the GI50 in test [3] was below 200 nM; in test [4], 1500 to 5000 nM; in test [5] it was below 200 nM.
As to `C=CC(=O)N1CC(n2cc(-c3ccn4ncnc(Nc5ccc(Oc6ccn7ncnc7c6)c(C)c5)c34)cn2)C1` [Example 2, 1-(3-(4-(4-((4-([1,2,4]triazolo[1,5-a]pyridin-7-yloxy)-3-methylphenyl)amino)pyrrolo[2,1-f][1,2,4]triazin-5-yl)-1H-pyrazol-1-yl)azetidin-1-yl)prop-2-en-1-one], the IC50 in test [2] is below 200 nM. In addition, the GI50 was below 200 nM in test [3], 1500 to 5000 nM in test [4] and below 200 nM in test [5].
For `C=CC(=O)N1CCN(c2ccn3ncnc(Nc4ccc(Oc5ccn6ncnc6c5)c(C)c4)c23)CC1` [Example 6, 1-(4-(4-((4-([1,2,4]triazolo[1,5-a]pyridin-7-yloxy)-3-methylphenyl)amino)pyrrolo[2,1-f][1,2,4]triazin-5-yl)piperazin-1-yl)prop-2-en-1-one], the IC50 in test [2] is below 200 nM. Besides, the GI50 in test [3] is below 200 nM; in test [4] it was 500 to 1500 nM; in test [5], below 200 nM.
For the compound `C=CC(=O)N1CCC(c2ccn3ncnc(Nc4ccc(Oc5ccn6ncnc6c5)c(C)c4)c23)CC1` [Example 7, 1-(4-(4-((4-([1,2,4]triazolo[1,5-a]pyridin-7-yloxy)-3-methylphenyl)amino)pyrrolo[2,1-f][1,2,4]triazin-5-yl)piperidin-1-yl)prop-2-en-1-one], the IC50 in test [2] is below 200 nM. The GI50 in test [3] is below 200 nM; in test [4], 200 to 500 nM; in test [5], below 200 nM.
Turning to `C=CC(=O)N1CCCN(c2ccn3ncnc(Nc4ccc(Oc5ccn6ncnc6c5)c(C)c4)c23)CC1` [Example 8, 1-(4-(4-((4-([1,2,4]triazolo[1,5-a]pyridin-7-yloxy)-3-methylphenyl)amino)pyrrolo[2,1-f][1,2,4]triazin-5-yl)-1,4-diazepan-1-yl)prop-2-en-1-one], the IC50 in test [2] was below 200 nM. Moreover, the GI50 was below 200 nM in test [3], 500 to 1500 nM in test [4] and below 200 nM in test [5].
For `C=CC(=O)N1CC(c2ccn(-c3ccn4ncnc(Nc5ccc(Oc6ccn7ncnc7c6)c(C)c5)c34)n2)C1` [Example 10, 1-(3-(1-(4-((4-([1,2,4]triazolo[1,5-a]pyridin-7-yloxy)-3-methylphenyl)amino)pyrrolo[2,1-f][1,2,4]triazin-5-yl)-1H-pyrazol-3-yl)azetidin-1-yl)prop-2-en-1-one], the IC50 in test [2] was below 200 nM. Also, the GI50 in test [3] was 500 to 1500 nM; in test [4], 1500 to 5000 nM; in test [5], 200 to 500 nM.
The like results for `C=CC(=O)N1CCCC(c2ccn3ncnc(Nc4ccc(Oc5ccn6ncnc6c5)c(C)c4)c23)C1` (stereo not shown) [Example 12, 1-(3-(4-((4-([1,2,4]triazolo[1,5-a]pyridin-7-yloxy)-3-methylphenyl)amino)pyrrolo[2,1-f][1,2,4]triazin-5-yl)piperidin-1-yl)prop-2-en-1-one] were, in that order, below 200 nM, below 200 nM, 1500 to 5000 nM and below 200 nM.
The like results for `Cc1cc(Nc2ncnn3ccc(C4CN(C(=O)/C=C/CN5CCCCC5)C4)c23)ccc1Oc1ccn2ncnc2c1` [Example 94, (E)-1-(3-(4-((4-([1,2,4]triazolo[1,5-a]pyridin-7-yloxy)-3-methylphenyl)amino)pyrrolo[2,1-f][1,2,4]triazin-5-yl)azetidin-1-yl)-4-(piperidin-1-yl)but-2-en-1-one] were, in that order, below 200 nM, below 200 nM, 1500 to 5000 nM and below 200 nM.
For `Cc1cc(Nc2ncnn3ccc(C4CN(C(=O)/C=C/CN5CCCC5)C4)c23)ccc1Oc1ccn2ncnc2c1` [Example 97, (E)-1-(3-(4-((4-([1,2,4]triazolo[1,5-a]pyridin-7-yloxy)-3-methylphenyl)amino)pyrrolo[2,1-f][1,2,4]triazin-5-yl)azetidin-1-yl)-4-(pyrrolidin-1-yl)but-2-en-1-one], the IC50 in test [2] is below 200 nM. Moreover, the values for the GI50 in test [3], in test [4] and in test [5] were below 200 nM, 1500 to 5000 nM and below 200 nM, respectively.
With `Cc1cc(Nc2ncnn3ccc(C4CCN(C(=O)/C=C/CN(C)C)C4)c23)ccc1Oc1ccn2ncnc2c1` (stereo not shown) [Example 98, (E)-1-(3-(4-((4-([1,2,4]triazolo[1,5-a]pyridin-7-yloxy)-3-methylphenyl)amino)-pyrrolo-[2,1-f][1,2,4]triazin-5-yl)pyrrolidin-1-yl)-4-(dimethylamino)but-2-en-1-one], the IC50 in test [2] is below 200 nM. Besides, the GI50 is 200 to 500 nM in test [3], 1500 to 5000 nM in test [4] and below 200 nM in test [5].
As to `Cc1cc(Nc2ncnn3ccc(C4CN(C(=O)/C=C/CN(C)C)C4)c23)ccc1Oc1ccc2c(c1)ncn2C` [Example 101, (E)-4-(dimethylamino)-1-(3-(4-((3-methyl-4-((1-methyl-1H-benzo[d]imidazol-5-yl)oxy)phenyl)amino)pyrrolo[2,1-f][1,2,4]triazin-5-yl)azetidin-1-yl)but-2-en-1-one], the IC50 in test [2] is below 200 nM. Moreover, the GI50 is below 200 nM in test [3], 1500 to 5000 nM in test [4] and below 200 nM in test [5].
For `C=CC(=O)N1CCC(c2ccn3ncnc(Nc4ccc(Oc5ccc6c(c5)ncn6C)c(C)c4)c23)CC1` [Example 113, 1-(4-(4-((3-methyl-4-((1-methyl-1H-benzo[d]imidazol-5-yl)oxy)phenyl)amino)pyrrolo[2,1-f][1,2,4]triazin-5-yl)piperidin-1-yl)prop-2-en-1-one], in test [2], the IC50 was below 200 nM. Also, the figures for the GI50 in test [3], in test [4] and in test [5] were below 200 nM, 500 to 1500 nM and below 200 nM, respectively.
For `CNC/C=C/C(=O)N1CCC(c2ccn3ncnc(Nc4ccc(Oc5ccn6ncnc6c5)c(C)c4)c23)CC1` [Example 177, (E)-1-(4-(4-((4-([1,2,4]triazolo[1,5-a]pyridin-7-yloxy)-3-methylphenyl)amino)pyrrolo[2,1-f][1,2,4]triazin-5-yl)piperidin-1-yl)-4-(methylamino)but-2-en-1-one], the GI50 in test [3] is below 200 nM; in test [4] it was 1500 to 5000 nM; in test [5], below 200 nM.
Turning to `Cc1cc(Nc2ncnn3ccc(C(=O)NCCCN(C)C)c23)ccc1N` [Example 181, 4-((4-amino-3-methylphenyl)amino)-N-(3-(dimethylamino)propyl)pyrrolo[2,1-f][1,2,4]triazine-5-carboxamide], the GI50 was above 5000 nM in test [3], above 5000 nM in test [4] and 1500 to 5000 nM in test [5].

The values are drawn from US20240132521A1, “COMPOUNDS AND METHODS FOR MODULATING HER2” (Iambic Therapeutics, Inc., priority 2022, published 2024).
